Experimental data from patent publication US20180055838A1, “METHODS AND COMPOSITIONS FOR TREATMENT OF DERMAL AND EPIDERMAL WOUNDS” (THE PENN STATE RESEARCH FOUNDATION, priority 2011, published 2018).

Key:
[1] = system: basal cells of the cutaneous epithelium; assay: DNA synthesis (BrdU labeling index) in stratum basale of unwounded dorsal skin; assay type: in vivo; conditions: for increase of BrdU incorporation relative to labeling index of DB animals: DB (T1D) rats
Procedure: Male Sprague-Dawley rats (˜150 g) were purchased from Charles River Laboratories (Wilmington, Mass.), and housed under standard laboratory conditions; water and food were available ad libitum. All investigations conformed to the guidelines of The Pennsylvania State University College of Medicine Institutional Animal Care and Use Committee.
Type 1 diabetes (T1D) was induced by intraperitoneal (i.p.) injections of 40 mg/kg streptozotocin (STZ, Sigma, St. Louis, Mo.), on two consecutive days (Klocek et al., Journal of Ocular Pharmacology and Therapeutics, 23:89-102 (2007); Havel et al., Diabetes, 49:244-252 (2000)). This regimen produced insulin-dependent diabetes in 100% of the animals within 72-96 h; rats with blood glucose levels measuring >350 mg/dl were considered diabetic (DB). Blood glucose levels were monitored from the tail vein using a True Track® Smart System glucometer (Home Diagnostics, Ft. Lauderdale, Fla.) before receiving STZ, and at 1, 4, and 8 weeks following induction of hyperglycemia. Control animals receiving an injection of an equivalent volume of sterile saline were termed “normal”. All rats were weighed weekly.
Normal (n=24) and diabetic (DB) rats (n=24) were randomized 8 weeks after injections of STZ or saline, and received NTX (Sigma-Aldrich, Indianapolis, Ind.) systemically (30 mg/kg, i.p. or subcutaneous (s.c.) at 0800 h) or topically 3 times daily at 0700, 1200, and 1700 h. For topical applications, NTX was dissolved in Sorenson's phosphate buffer (SPB), KY jelly (KYJ) (K-Y, Personal Products Company, McNeil-PPC, Inc., Skillman, N.J.), Neutrogena moisturizing cream (MCN) (Neutrogena Corporation, Los Angeles, Calif.), or DMSO (VWR, Philadelphia, Pa.). NTX was dissolved in sterile water at dosages of 10^−4 M, 10^−5 M or 10^−6 M, and thoroughly mixed into each of the carriers (1:1, v/v); 0.5 ml of saline mixed into corresponding carriers served as the respective vehicle control.
On the day preceding NTX or vehicle treatment, an 8×8 cm area was shaved on the dorsal surface of each rat and 4 circles (approximately 20 mm in diameter) were made with a permanent marker to denote locations of subsequent topical applications and/or skin collection. Using an applicator stick, one ml of carrier containing NTX or vehicle was placed within the demarked areas. Applications of NTX formulations were randomized to different positions. Each animal received NTX in 3 different concentrations, as well as the vehicle, in the same carrier; some rats received only saline in a carrier or were untreated.
To assess cells undergoing DNA synthesis, rats were injected i.p. with 100 mg/kg BrdU (Sigma-Aldrich) 3 and 6 h before euthanasia with Euthasol (Virbac, Fort Worth, Tex.). Appropriate regions of the skin were removed, fixed in 10% buffered formalin, and paraffin sections (6 μm) were stained with anti-BrdU-POD (Invitrogen, Carlsbad, Calif.). BrdU stained cells in the basal layer of the epithelium were counted in four 0.1 mm grids at 250× magnification using 2 sections/specimen; 3 tissue specimens were analyzed for each dosage of NTX in each carrier.

[2] = system: full-thickness cutaneous wounds; assay: Closure of 6 mm full-thickness cutaneous wounds (residual wound area, contraction, re-epithelialization); assay type: in vivo, rat; conditions: Normal rats, 10^−5 M NTX in MCN; for reduction of wound area relative to MCN+vehicle: within 3 days
Procedure: In a second set of experiments, Normal (n=70) and DB (n=70) Sprague-Dawley rats, 12-14 weeks of age and 8 weeks after injection of STZ, were subjected to wounding. Eight rats/treatment regimen were evaluated over the course of 3 independent experiments. The dorsum of the rat was shaved, and areas (20 mm in diameter) outlined with a marker in order to consistently position the wounds. Animals were anesthetized by i.p. injection of ketamine (60 mg/kg), xylazine (10 mg/kg), and acepromazine (1 mg/kg), and a 6 mm full-thickness circular excisional skin wound was made in the center of the demarked area to the level of the panniculus muscle using an Acupunch (Acuderm Inc., Fort Lauderdale, Fla.). Three wounds per rat were standardized such that the first wound was made 5 cm posterior to the occipital notch at the posterior of the animal's cranium and 1 cm off the midline. The second wound was created 7 cm posterior to the occipital notch at the posterior of the animal's cranium and 1 cm off the midline on the opposite side from the first wound. The third wound was placed 9 cm posterior to the occipital notch at the base of the animal's cranium and 1 cm off the midline on the same side as the first wound. To minimize the effects of diurnal rhythm, surgery was performed between 0800-0900 h. All wounds were left uncovered.
Topical administration of ˜0.1 ml of the carrier containing NTX or vehicle, using the dosage and carriers selected from the first experiment, was initiated immediately after wounding (0800 h for those rats receiving agents only once per day, and at 0800, 1200, and 1600 h for those animals receiving 3 applications daily); control rats received the carrier with vehicle either once or three times daily. Some animals in the Normal and DB groups were wounded but untreated.
Wound size was monitored by capturing images with a digital camera mounted on a tripod set 20 cm from the surface; a ruler was photographed with each wound. Animals were manually restrained without anesthesia for photography. Photographs were taken immediately after surgery and on days 3, 5, 7, 9, and 11. The area of each wound was analyzed using Image ProPlus 6.2 (Media Cybernetics, Inc., Bethesda, Md.). The percent residual wound was calculated at each time point for every rat. At 8 days, wound closure also was quantified according to Pietramaggiori and colleagues (Pietramaggiori et al., J Surg Res 160:169-177 (2010)) by measuring contraction, re-epithelialization, and open wound as a percentage of the original wound area. The sum of contracted, re-epithelialized, and open wound area was defined as equaling 100% of the original wound size (Yannas I., Tissue and Organ Regeneration in Adults. New York: Springer, 2001).

[3] = system: epithelium covering the granulation tissue; assay: Histopathology and epithelial thickness of wounded region 20 days after wounding; assay type: in vivo, rat
Procedure: On day 20 following creation of the wound, some rats were euthanized and the original wound areas as well as tissue peripheral to the wound that encompassed the 20 mm diameter circle were excised and fixed in 10% neutral buffered formalin. Tissues were processed for paraffin embedding; sections were stained with hematoxylin and eosin. The thickness of the epithelium covering the granulation tissue was measured with an ocular micrometer. Five measures/section from 7-8 wounds/treatment group were evaluated at 250× magnification.

[4] = system: full-thickness cutaneous wound; assay: Healing of 5-mm full-thickness cutaneous wound in Type 2 diabetic (db/db) mice; assay type: in vivo; conditions: 10^−5 M NTX in moisturizing cream 3 times daily, by days 6, 13, and 15, p<0.05
Description: To study the effects of opioid receptor antagonists on wound healing in a Type 2 diabetic and general obesity model, wound healing was compared between wild type and Lepr^db (also referred to as db/db) mutant mice. Mice homozygous for the diabetes spontaneous mutation (Lepr^db) become identifiably obese around 3 to 4 weeks of age. Plasma insulin levels become elevated beginning at 10 to 14 days and blood sugar levels become elevated beginning at four to eight weeks. These mice show delayed wound healing compared to wild type mice.
Mice were purchased from Jackson Laboratories and housed under standard laboratory care. Body weights and blood glucose levels of 8-week old Type 2 diabetic (db/db) mice and wild type C57Bl/6 mice were obtained (FIG. 9). Tail vein blood was obtained and glucose levels were measured by a TrueTrak glucometer. Values represent means±SEM; n=6-10 mice/treatment group.
To study wound healing, a 5-mm circular full-thickness cutaneous wound was created on the dorsum of db/db and wild type mice. Db/db mice were treated with either 10^−5 M Naltrexone (NTX) in moisturizing cream (vehicle), or vehicle alone; wild type mice received vehicle only. Applications were made 3 times daily for 15 days.

human and animal cells = human and animal cells (Cheng 2009); cited from earlier work
[5] = literature reports (Stinchcomb 2002; Krishman 2010); cited from earlier work

O=C1CC[C@@]2(O)[C@H]3Cc4ccc(O)c5c4[C@@]2(CCN3CC2CC2)[C@H]1O5 [NTX, 17-(cyclopropylmethyl)-4,5α-epoxy-3,14-dihydroxymorphinan-6-one]
increase of BrdU incorporation relative to labeling index of DB animals ([1]; systemic 30 mg/kg NTX i.p.): 181% | increase of BrdU incorporation relative to labeling index of DB animals ([1]; systemic 30 mg/kg NTX s.c.): 59% | effect on BrdU incorporation ([1]; DB rats, topical NTX 10^−4 and 10^−5 M in SPB): no effect | elevation of labeling index from baseline levels ([1]; DB rats, topical NTX at all 3 dosages in KYJ): 103-147% | elevation of labeling index from baseline levels ([1]; DB rats, topical NTX at all 3 dosages in MCN): 85-89% | efficacy on BrdU labeling ([1]; DB rats, topical NTX combined with DMSO, only at 10^−4 and 10^−5 M): efficacious | elevation of BrdU labeling relative to labeling index of Normal rats ([1]; Normal rats, systemic 30 mg/kg NTX i.p.): 172% | elevation of BrdU labeling relative to labeling index of Normal rats ([1]; Normal rats, systemic 30 mg/kg NTX s.c.): 51% | elevation of DNA synthesis from baseline levels ([1]; Normal rats, topical NTX 10^−4 M to 10^−6 M in any of the 4 carriers (SPB, DMSO, KYJ, MCN)): 43-132% | increase in BrdU incorporation in the skin compared to baseline ([1]; Normal rats, topical NTX in SPB): 43-56% | change of BrdU incorporation from baseline ([1]; Normal rats, topical NTX, different dosages, in MCN): 73-132% | toxicity of the effects on cell proliferation ([1]; T1D and normal rats, systemic or topical): not toxic | reduction of wound size relative to MCN+vehicle ([2]; one time daily, days 3, 5, 7, and 9): 31-82% | reduction of wound area relative to MCN+vehicle ([2]; single daily regimen): 30% | reduction of wound size relative to MCN+vehicle ([2]; three times daily, days 3, 5, 7, and 9 (day 9 not significant)): 11-23% | reduction of wound area relative to MCN+vehicle ([2]; three times daily): 11% | thickness of the epithelium relative to Normal animals receiving vehicle (24.6±1.6 μm) ([3]; DB rats subjected to NTX, day 20 (DB vehicle had a 44% reduction)): did not differ | general structure of the epithelium (e.g., absence of necrotic cells) ([3]; Normal and DB rats receiving vehicle or NTX, 20 days following surgery): appeared to be similar | thickness of the epithelium relative to Normal animals receiving vehicle (24.6±1.6 μm) ([3]; Normal rats treated with NTX, day 20): did not differ | wound healing (percent residual defect) relative to db/db mice treated with vehicle only [4]: significant improvement in would healing | entry into cells (human and animal cells): rapidly by passive diffusion | penetration of the skin [5]: poor penetrator of the skin
